Data published in ChEMBL document CHEMBL1143878, “The design and synthesis of novel alpha-ketoamide-based p38 MAP kinase inhibitors” (Bioorg Med Chem Lett, 2008).

Tests used:
[1] = Tmax in rat at 30 mg/kg, po; format: ADME, organism-based; design: dose 30 mg/kg, route oral; conditions: in vivo
[2] = Volume of distribution at steady state in rat at 10 mg/kg, iv; format: ADME, organism-based; design: dose 10 mg/kg, route intravenous; conditions: in vivo, read-out: Vdss
[3] = tested on: THP-1; test: Inhibition of LPS-induced TNFalpha production in human THP1 cells; format: functional, cell-based
[4] = Bioavailability in rat at 30 mg/kg, po; format: ADME, organism-based; conditions: in vivo
[5] = target: T1, Mitogen-activated protein kinase 14 (Homo sapiens, UniProt Q16539); test: Inhibition of human p38-alpha kinase phosphorylation
T1 sequence (Q16539 whole entry): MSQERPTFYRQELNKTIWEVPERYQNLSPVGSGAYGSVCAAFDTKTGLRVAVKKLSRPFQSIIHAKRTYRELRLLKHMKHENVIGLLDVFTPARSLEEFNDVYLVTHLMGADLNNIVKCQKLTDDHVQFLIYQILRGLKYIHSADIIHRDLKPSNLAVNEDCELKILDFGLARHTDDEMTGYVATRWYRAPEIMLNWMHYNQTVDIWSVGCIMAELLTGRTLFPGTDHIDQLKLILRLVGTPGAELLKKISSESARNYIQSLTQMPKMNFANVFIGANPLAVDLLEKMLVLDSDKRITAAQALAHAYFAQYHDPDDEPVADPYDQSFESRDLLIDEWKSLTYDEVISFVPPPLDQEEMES

[6] = Cmax in rat at 30 mg/kg, po; format: ADME, organism-based; design: dose 30 mg/kg, route oral; conditions: in vivo
[7] = AUC in rat at 30 mg/kg, po; format: ADME, organism-based; design: dose 30 mg/kg, route oral; conditions: plasma
[8] = Half life in rat at 30 mg/kg, po; format: ADME, organism-based; design: dose 30 mg/kg, route oral; conditions: in vivo
[9] = Clearance in rat at 10 mg/kg, iv; format: ADME, organism-based; design: dose 10 mg/kg, route intravenous; conditions: in vivo
[10] = target: T1, Mitogen-activated protein kinase 14; test: Inhibition of human p38-alpha kinase

| SMILES | IC50 [3] [nM] | also measured |
| --- | --- | --- |
| Cc1ccc(-n2nc(C(C)(C)C)cc2NC(=O)/C(=N\O)c2ccc(OCCN3CCOCC3)c3ccccc23)cc1 | 23 | Tmax [1]: 1 h; Vd [2]: 1.9 L/kg; bioavailability [4]: 100%; IC50 [5]: 150 nM; Cmax [6]: 4500 ng/mL; AUC [7]: 36000 ng·h/mL; half-life [8]: 1.4 h; clearance [9]: 15 mL/min/kg; IC50 [10]: 23 nM |
| Cn1nc(C(C)(C)C)cc1NC(=O)C(=O)c1ccc(OCCN2CCOCC2)c2ccccc12 | – | IC50 [5]: 300 nM; IC50 [10]: 150 nM |
| CO/N=C(\C(=O)Nc1cc(C(C)(C)C)nn1-c1ccc(C)cc1)c1ccc(OCCN2CCOCC2)c2ccccc12 | 1500 | – |
| CC(C)(C)c1cc(NC(=O)C(=O)c2ccc(OCCN3CCOCC3)c3ccccc23)[nH]n1 | 1500 | – |
| O=c1ncn2nc(Sc3ccc(F)cc3F)ccc2c1-c1c(Cl)cccc1Cl [NEFLAMAPIMOD] | 39 | – |
| Cc1cccc(-n2nc(C(C)(C)C)cc2NC(=O)C(=O)c2ccc(OCCN3CCOCC3)c3ccccc23)c1 | 340 | – |
| CC(C)(C)c1cc(NC(=O)C(=O)c2ccc(OCCN3CCOCC3)c3ccccc23)n(-c2ccccc2)n1 | 2100 | – |
| Cc1ccc(-n2nc(C(C)(C)C)cc2NC(=O)C(=O)c2ccc(OCCN3CCOCC3)c3ccccc23)cc1F | 220 | – |
| Cc1ccc(-n2nc(C(C)(C)C)cc2NC(=O)C(O)c2ccc(OCCN3CCOCC3)c3ccccc23)cc1 (stereo not given) | 970 | – |
| Cc1ccc(-n2nc(C(C)(C)C)cc2NC(=O)C(=O)c2ccc(OCCN3CCOCC3)c3ccc(Cl)cc23)cc1 | 2600 | – |
| Cc1ccc(-n2nc(C(C)(C)C)cc2NC(=O)C(=O)c2ccc(OCCN3CCOCC3)c3ccccc23)cc1C | 450 | – |
| Cc1ccccc1-n1nc(C(C)(C)C)cc1NC(=O)C(=O)c1ccc(OCCN2CCOCC2)c2ccccc12 | 1500 | – |
| Cc1ccc(-n2nc(C(C)(C)C)cc2NC(=O)Nc2ccc(OCCN3CCOCC3)c3ccccc23)cc1 [DORAMAPIMOD] | 13 | – |
| Cc1ccc(-n2nc(C(C)(C)C)cc2NC(=O)Cc2ccc(OCCN3CCOCC3)c3ccccc23)cc1 | 1400 | – |
| C[S+]([O-])c1ccc(-c2nc(-c3ccc(F)cc3)c(-c3ccncc3)[nH]2)cc1 (stereo not given) [SB-203580] | 16 | – |
| Cc1ccc(-n2nc(C(C)(C)C)cc2NC(=O)C(=O)c2ccc(OCCN3CCOCC3)c3ccccc23)cc1 | 440 | IC50 [5]: 310 nM; IC50 [10]: 320 nM |
| CC(C)(C)c1cc(NC(=O)C(=O)c2ccc(OCCN3CCOCC3)c3ccccc23)n(-c2cccc(F)c2)n1 | 440 | – |
| Cc1ccc(-n2nc(C(C)(C)C)cc2NC(=O)c2n[nH]c3ccccc23)cc1 | 2900 | – |
